Measured values: patent US7462625B2, “Gonadotropin-releasing hormone receptor antagonists and methods relating thereto” (Neurocrine Biosciences, Inc., priority 2000, dated 2008)
Like-named read-outs stand apart in the source and are kept apart here.

Molecular target: T1, GnRH receptor (Homo sapiens, UniProt P30968)
T1 construct: expressed in transfected cells
T1 sequence (P30968 1-328): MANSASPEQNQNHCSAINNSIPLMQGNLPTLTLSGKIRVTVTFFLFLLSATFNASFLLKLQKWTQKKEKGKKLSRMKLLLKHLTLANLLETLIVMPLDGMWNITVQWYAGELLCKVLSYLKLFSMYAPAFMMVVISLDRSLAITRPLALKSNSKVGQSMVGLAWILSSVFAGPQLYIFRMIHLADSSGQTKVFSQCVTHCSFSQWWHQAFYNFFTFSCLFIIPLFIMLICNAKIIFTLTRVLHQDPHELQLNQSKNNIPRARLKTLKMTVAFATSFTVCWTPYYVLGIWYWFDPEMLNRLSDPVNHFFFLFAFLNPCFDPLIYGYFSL
Assay: GnRH receptor membrane binding assay
Experimental: Radio-Iodination of GnRH Peptide
The GnRH analog is labeled by the chloramine-T method. […] The reaction is stopped by the addition of 60 μg sodium metabisulfite and the free iodine is removed by passing the iodinated mixture through a C-8 Sep-Pak cartridge (Millipore Corp., Milford, Mass.). The peptide is eluted with a small volume of 80% acetonitrile/water. […] The purified radioactive peptide is stored in 0.1% BSA/20% acetonitrile/0.1% TFA at −80° C. and can be used for up to 4 weeks.
GnRH Receptor Membrane Binding Assay
Cells stably, or transiently, transfected with GnRH receptor expression vectors are harvested, resuspended in 5% sucrose and homogenized using a polytron homogenizer (2×15 sec). Nucleii are removed by centrifugation (3000×g for 5 min.), and the supernatant centrifuged (20,000×g for 30 min, 4° C.) to collect the membrane fraction. The final membrane preparation is resuspended in binding buffer (10 mM Hepes (pH 7.5), 150 mM NaCl, and 0.1% BSA) and stored at −70° C. Binding reactions are performed in a Millipore MultiScreen 96-well filtration plate assembly with polyethylenimine coated GF/C membranes. […] The reaction is terminated after 90 minutes by application of vacuum and washing (2×) with phosphate buffered saline. Bound radioactivity is measured using 96-well scintillation counting (Packard Topcount) or by removing the filters from the plate and direct gamma counting. Ki values are calculated from competition binding data using non-linear least squares regression using the Prism software package (GraphPad Software).

[1] = GnRH receptor membrane binding assay, [125I]-labeled GnRH peptide, read-out: Ki

Row | Structure (SMILES) | Ki [1] [nM] | Ki [nM]
1 | COc1cccc(-c2c(C)n(Cc3c(F)cccc3F)c(=O)n(CCN(C)Cc3ccccn3)c2=O)c1 [1-3] | < 100 | 
2 | CCN(CCc1ccccn1)CCn1c(=O)c(-c2cccc(OC)c2)c(C)n(Cc2c(F)cccc2F)c1=O [1-10] | < 100 | 
3 | COc1cccc(-c2c(C)n(Cc3c(F)cccc3F)c(=O)n(CCN(C)CCc3cccc(Cl)n3)c2=O)c1 [1-11] | < 100 | 
4 | COc1cccc(-c2c(C)n(Cc3c(F)cccc3F)c(=O)n(CCN(CCc3ccccn3)CC3CC3)c2=O)c1 [1-12] | < 100 | 
5 | CCN1CCC(N(CC)CCn2c(=O)c(-c3cccc(OC)c3)c(C)n(Cc3c(F)cccc3F)c2=O)C1 (stereo not shown) [1-13] | < 100 | 
6 | Cc1c(-c2ccc3c(c2)OCO3)c(=O)n(CCN(C)CCc2ccccn2)c(=O)n1Cc1c(F)cccc1F [3-1] | < 100 | 
7 | CCN(CCc1ccccn1)CCn1c(=O)c(-c2ccc3c(c2)OCO3)c(C)n(Cc2c(F)cccc2F)c1=O [3-4] | < 100 | 
8 | Cc1c(-c2ccccc2F)c(=O)n(CCN(C)CCc2ccccn2)c(=O)n1Cc1c(F)cccc1F [6-1] | < 100 | 
9 | Cc1c(-c2ccc(Oc3ccccc3)cc2)c(=O)n(CCN(C)CCc2ccccn2)c(=O)n1Cc1c(F)cccc1F [6-2] | < 100 | 
10 | Cc1c(-c2ccc3c(c2)OCCO3)c(=O)n(CCN(C)CCc2ccccn2)c(=O)n1Cc1c(F)cccc1F [6-3] | < 100 | 
11 | Cc1c(-c2ccc(NC(=O)OCC(C)C)cc2)c(=O)n(CCN(C)CCc2ccccn2)c(=O)n1Cc1c(F)cccc1F [6-8] | < 100 | 
12 | COc1cccc(-c2c(C)n(Cc3c(F)cccc3F)c(=O)n(CCN3CCC(N4CCCC4)CC3)c2=O)c1 [7-2] | < 100 | 
13 | COc1cccc(-c2c(C)n(Cc3c(F)cccc3F)c(=O)n(CCN3CCC(NC(=O)C(F)(F)F)C3)c2=O)c1 (stereo not shown) [7-3] | < 100 | 
14 | COc1cccc(-c2c(C)n(Cc3c(F)cccc3F)c(=O)n(CCN3CCC(NC(=O)OC(C)(C)C)C3)c2=O)c1 (stereo not shown) [7-4] | < 100 | 
15 | COc1cccc(-c2c(C)n(Cc3c(F)cccc3F)c(=O)n(CCN3CC4CC3CO4)c2=O)c1 (stereo not shown) [7-10] | < 100 | 
16 | Cc1cc(=O)n(C[C@@H](N)Cc2ccccc2)c(=O)n1Cc1c(F)cccc1F [8-4] | < 100 | 

Row | Structure (SMILES) | Ki [1] [nM] | Ki [nM]
17 | Cc1cc(=O)n(C[C@H](N)Cc2ccccc2)c(=O)n1Cc1c(F)cccc1F [8-7] | < 100 | 
18 | Cc1cc(=O)n(C[C@@H](N)CC2CCCCC2)c(=O)n1Cc1c(F)cccc1F [8-12] | < 100 | 
19 | COc1cccc(-c2c(C)n(Cc3c(F)cccc3F)c(=O)n(C[C@H](N)COCc3ccccc3)c2=O)c1F [8-15] | < 100 | 
20 | Cc1cccc(-c2c(C)n(Cc3c(F)cccc3F)c(=O)n(C[C@H](N)c3ccccc3)c2=O)c1F [8-17] |  | < 100
21 | COc1cccc(-c2c(C)n(Cc3c(F)cccc3F)c(=O)n(C[C@@H](N)CC(C)C)c2=O)c1F [8-23] | < 100 | 
22 | COc1cccc(-c2c(C)n(Cc3c(F)cccc3F)c(=O)n(C[C@H](N)C(C)C)c2=O)c1F [8-25] | < 100 | 
23 | Cc1cc(-c2c(C)n(Cc3c(F)cccc3F)c(=O)n(C[C@H](N)c3ccccc3)c2=O)ccc1F [8-44] | < 100 | 
24 | COc1cccc(-c2c(C)n(Cc3c(F)cccc3F)c(=O)n(C[C@H](N)C(=O)Nc3ccccc3)c2=O)c1 [8-51] | < 100 | 
25 | COc1ccc(-c2c(C)n(Cc3c(F)cccc3F)c(=O)n(C[C@H](N)c3ccccc3)c2=O)cn1 [8-58] | < 100 | 
26 | CCOc1cccc(-c2c(C)n(Cc3c(F)cccc3F)c(=O)n(C[C@H](N)c3ccccc3)c2=O)c1 [8-59] | < 100 | 
27 | CSc1cccc(-c2c(C)n(Cc3c(F)cccc3F)c(=O)n(C[C@H](N)c3ccccc3)c2=O)c1 [8-61] | < 100 | 
28 | COc1cccc(Oc2ccc(-c3c(C)n(Cc4c(F)cccc4F)c(=O)n(C[C@H](N)c4ccccc4)c3=O)cc2)c1 [8-68] | < 100 | 
29 | Cc1c(-c2ccc(Oc3cccc(Cl)c3)cc2)c(=O)n(C[C@H](N)c2ccccc2)c(=O)n1Cc1c(F)cccc1F [8-70] | < 100 | 
30 | Cc1c(-c2ccc(Cl)s2)c(=O)n(C[C@H](N)c2ccccc2)c(=O)n1Cc1c(F)cccc1F [8-75] | < 100 | 
31 | COc1ccc(-c2c(C)n(Cc3c(F)cccc3F)c(=O)n(C[C@H](N)c3ccccc3)c2=O)cc1 [8-100] | < 100 | 
